The test system of the assay is RPtag (large). The assay can be described thus: Association/dissociation kinetics of RPtag (small) peptides with RPtag (large) by fluorescence anisotropy. The assay is classed as binding, Thermoanaerobacter tengcongensis. Particulars: for koff: LS dissociation, unlabeled competitor peptide; for kon (M^−1 min^−1 ) (×10^7): S*-LS transition, calculated from measured koff and Kd. How it is done: Panel a depicts representative association rate kinetics traces varying native RPtag small. Rhodamine labeled RPtag small at the indicated concentration was incubated with unlabeled RPtag large and the association measured by fluorescence anisotropy. L-S complex concentration was calculated by the equation (r−rmin)/(rmax−rmin)*[S] where r is the measured anisotropy, rmin is the anisotropy in the absence of any RPtag large, rmax is the anisotropy measured in the presence of at saturating RPtag large, and [S] is the total concentration of RPtag small used in the experiment. […] Dashed cyan lines are simulations of the mechanism shown in f using the rate constants detailed herein. The concentrations in the simulations were multiplied by a correction factor of 0.925, which is well within the 90% purity specification of the purchased peptide.
LS complex was performed by incubating 1000 nM RPtag large with the indicated concentrations of rhodamine labeled RPtag small. At the start of the experiment, 0.1 mM unlabeled native RPtag small was added and fluorescence anisotropy monitored. Data processing was done as in panel a, except the red fits were to the single exponential decay equation y=y0+A*exp(−b*t). As expected, the initial dissociation rates were linear with respect to the LS complex.
Fitting to a line yields a rate constant (koff)=0.0091 min^−1 (FIG. 9 panel e). In good agreement, when the kinetics are fit with a first order rate law, a rate constant of 0.012±0.002 min^−1 (n=15) was observed. […] Panel e is a graph of the initial rates of the traces represented in d. Slope of the fit line is 0.0091 min^−1. Data are mean±SE (n=3).
The library of mutant RPtag(small) peptides, described above, was next analyzed to measure off rates (koff). The on rate was also calculated from measured koff and Kd (S*-LS transition), except instead of using unlabeled native peptide as the competitor, we used unlabeled Nd2,P5A,E18A (the tightest binding RPtag(small) peptide identified). […] However, there were notable exceptions. […] This indicates, without wishing to be limited, that P5 may constrain the structure of the peptide. The increased flexibility imparted to the peptide by the P5A mutation may decrease the energy barrier required for binding/unbinding.

Chain of RPtag (large) (as listed by the source): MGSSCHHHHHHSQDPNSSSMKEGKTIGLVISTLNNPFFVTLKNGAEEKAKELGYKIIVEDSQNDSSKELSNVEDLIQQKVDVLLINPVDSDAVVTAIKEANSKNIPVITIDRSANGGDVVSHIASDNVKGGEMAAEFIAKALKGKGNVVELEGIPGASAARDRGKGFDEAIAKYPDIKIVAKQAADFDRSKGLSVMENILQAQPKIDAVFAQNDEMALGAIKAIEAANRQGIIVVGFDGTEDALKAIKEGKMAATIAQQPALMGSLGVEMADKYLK

FIPAELKLITKE [Nd6, Cd3]: the koff (in general, the rate constant with which the complex falls apart) is >2 min⁻¹.
Consider “KIPNFIPAELKLITKANAA [Nd2, e18a, v20a, q21a]”, for which the “koff” value worked out at 0.023 ± 0.001 min⁻¹ and the “kon (M^−1 min^−1 ) (×10^7)” value is recorded as 3.6 ± 0.3 ×10^7 M^−1 min^−1.
The corresponding values for ELKLITKENVQ [Nd10] are 0.25 ± 0.04 min⁻¹ and 4.3 ± 0.7 ×10^7 M^−1 min^−1.
The matching figures for GEKIPNFIPAELKLITK [Cd4]: 0.22 ± 0.02 min⁻¹ and 22 ± 2 ×10^7 M^−1 min^−1.
The corresponding values for GEKIPNFIPAELKLIT [Cd5] are 0.39 ± 0.23 min⁻¹ and 11 ± 7 ×10^7 M^−1 min^−1.
Take KIPNFIPAELKLITKE [Nd2, Cd3]: the “koff” value was 0.046 ± 0.002 min⁻¹ and the “kon (M^−1 min^−1 ) (×10^7)” value is given as 8.2 ± 0.3 ×10^7 M^−1 min^−1.
On to GEKIPNFIPAELKAITKENVQ [l14a], for which the off-rate (koff) is >2 min⁻¹.
For the substance NFIPAELKLITKENVQ [Nd5], the “koff” value was found to be 0.056 ± 0.001 min⁻¹ and the “kon (M^−1 min^−1 ) (×10^7)” value is 9.6 ± 0.1 ×10^7 M^−1 min^−1.
In the case of “KIANFIPAELKLITKANAA [Nd2, p5a, e18a, v20a, q21a]”, the “koff” value was 0.013 ± 0.001 min⁻¹ and the “kon (M^−1 min^−1 ) (×10^7)” value is on record as 20 ± 1 ×10^7 M^−1 min^−1.
For GEKIPAFIPAELKLITKENVQ [n6a], the “koff” value was found to be 0.0015 ± 0.0003 min⁻¹ and the “kon (M^−1 min^−1 ) (×10^7)” value was 0.45 ± 0.09 ×10^7 M^−1 min^−1.
The corresponding values for IPNFIPAELKLITKENVQ [Nd3] are 0.012 ± 0.001 min⁻¹ and 8.8 ± 0.3 ×10^7 M^−1 min^−1.
Turning to GEKIPNFIPAEAKLITKENVQ [l12a], the off-rate constant (koff) is 0.20 ± 0.06 min⁻¹ and the “kon (M^−1 min^−1 ) (×10^7)” value is recorded as 4.3 ± 1.2 ×10^7 M^−1 min^−1.
With GEKIANFIPAELKLITKENVQ [p5a], the off-rate (koff) was found to be 0.024 ± 0.002 min⁻¹.
In the case of GEKIPNFIPAALKLITKENVQ [e11a], the “koff” value was found to be 0.0067 ± 0.0005 min⁻¹ and the “kon (M^−1 min^−1 ) (×10^7)” value is on record as 0.46 ± 0.06 ×10^7 M^−1 min^−1.
As to GEKIPNFIPAELKLITAENVQ [k17a], the off-rate constant (koff) was 0.0057 ± 0.0002 min⁻¹ and the “kon (M^−1 min^−1 ) (×10^7)” value is reported as 1.0 ± 0.1 ×10^7 M^−1 min^−1.
ELKLITKA [Nd10, Cd3, e18a]: the “koff” value is >2 min⁻¹.
Take GEAIPNFIPAELKLITKENVQ [k3a]: the “koff” value was found to be 0.0053 ± 0.0007 min⁻¹ and the “kon (M^−1 min^−1 ) (×10^7)” value was 1.1 ± 0.1 ×10^7 M^−1 min^−1.
Regarding PAELKLITKE [Nd8, Cd3], the off-rate constant (koff) was >2 min⁻¹.
The same measure, in the same setting: to ELKLIT [Nd10, Cd5] belongs >2 min⁻¹.
GEKIPNFIPAELKLI [Cd6]: the “koff” value was >2 min⁻¹.
For the substance LITKENVQ [Nd13], the “koff” value is >2 min⁻¹.
On to PAELKLITKA [Nd8, Cd3, e18a], for which the “koff” value is >2 min⁻¹.
On the same count and under the same terms, for GEKIPNFIPAELKLITKE [Cd3] the value was 0.12 ± 0.02 min⁻¹.
In the case of IANFIPAELKLITKANVQ [Nd3, p5a, e18a], the “koff” value amounted to 0.058 ± 0.002 min⁻¹ and the “kon (M^−1 min^−1 ) (×10^7)” value was 9.2 ± 0.4 ×10^7 M^−1 min^−1.
The corresponding values for AELKLITKENVQ [Nd9] are 0.40 ± 0.04 min⁻¹ and 8.2 ± 0.9 ×10^7 M^−1 min^−1.
Turning to KLITKENVQ [Nd12], the off-rate (koff) is >2 min⁻¹.
With GEKIPNFIPAELKLATKENVQ [i15a], the “koff” value turned out to be 1.1 ± 0.3 min⁻¹ and the “kon (M^−1 min^−1 ) (×10^7)” value was 25 ± 6 ×10^7 M^−1 min^−1.
The matching figures for LKLITKENVQ [Nd11]: 1.2 ± 0.6 min⁻¹ and 7.1 ± 3.8 ×10^7 M^−1 min^−1.
The matching figures for KIPNFIPAELKLITKA [Nd2, Cd3, e18a]: 0.053 ± 0.002 min⁻¹ and 40 ± 2 ×10^7 M^−1 min^−1.
Consider KIPNFIPAELKLITK [Nd2, Cd4], for which the dissociation rate constant (koff) was 0.079 ± 0.006 min⁻¹ and the “kon (M^−1 min^−1 ) (×10^7)” value is listed as 20 ± 2 ×10^7 M^−1 min^−1.
The matching figures for GEKIPNFAPAELKLITKENVQ [i8a]: 0.090 ± 0.009 min⁻¹ and 8.6 ± 0.9 ×10^7 M^−1 min^−1.
The matching figures for KIPNFIPAELKLITKENVQ [Nd2]: 0.0035 ± 0.0008 min⁻¹ and 5.3 ± 1.3 ×10^7 M^−1 min^−1.
For the substance IPAELKLITKENVQ [Nd7], the “koff” value worked out at 0.042 ± 0.010 min⁻¹ and the “kon (M^−1 min^−1 ) (×10^7)” value is 1.8 ± 0.4 ×10^7 M^−1 min^−1.
With PAELKLITKENVQ [Nd8], the “koff” value came to 0.055 ± 0.002 min⁻¹ and the “kon (M^−1 min^−1 ) (×10^7)” value is given as 9.3 ± 0.3 ×10^7 M^−1 min^−1.
With GEKAPNFIPAELKLITKENVQ [i4a], the off-rate (koff) stood at 0.0060 ± 0.0002 min⁻¹.
For GEKIPNFIPAELKL [Cd7], the off-rate constant (koff) is >2 min⁻¹.
For EKIPNFIPAELKLITKENVQ [Nd1], the off-rate (koff) was found to be 0.0088 ± 0.0001 min⁻¹ and the “kon (M^−1 min^−1 ) (×10^7)” value was 3.4 ± 0.1 ×10^7 M^−1 min^−1.
Take PNFIPAELKLITKENVQ [Nd4]: the dissociation rate constant (koff) came to 0.028 ± 0.001 min⁻¹ and the “kon (M^−1 min^−1 ) (×10^7)” value is listed as 9.4 ± 0.4 ×10^7 M^−1 min^−1.
As for AIANFIPAELKLITKENVQ [Nd2, k3a, p5a], the “koff” value was 0.0090 ± 0.0004 min⁻¹.
For the substance GEKIPNFIPAELKLIAKENVQ [t16a], the “koff” value was found to be 0.089 ± 0.003 min⁻¹ and the “kon (M^−1 min^−1 ) (×10^7)” value was 7.5 ± 0.3 ×10^7 M^−1 min^−1.
In the case of GEKIPNFIPAELKLITKEN [Cd2], the “kon (M^−1 min^−1 ) (×10^7)” value is 9.8 ± 0.3 ×10^7 M^−1 min^−1.
KIANFIPAELKLITKE [Nd2, Cd3, p5a]: the “kon (M^−1 min^−1 ) (×10^7)” value is listed as 26 ± 1 ×10^7 M^−1 min^−1.
For the substance KIANFIPAELKLITK [Nd2, Cd4, p5a], the dissociation rate constant (koff) amounted to 0.18 ± 0.01 min⁻¹ and the “kon (M^−1 min^−1 ) (×10^7)” value is given as 22 ± 1 ×10^7 M^−1 min^−1.
The matching figures for KIANFIPAELKLITKA [Nd2, Cd3, p5a, e18a]: 0.18 ± 0.01 min⁻¹ and 33 ± 2 ×10^7 M^−1 min^−1.
The corresponding values for FIPAELKLITKENVQ [Nd6] are 0.065 ± 0.003 min⁻¹ and 12 ± 1 ×10^7 M^−1 min^−1.
The corresponding values for GEKIPNAIPAELKLITKENVQ [f7a] are 0.063 ± 0.003 min⁻¹ and 3.1 ± 0.1 ×10^7 M^−1 min^−1.
“RIANFIPAELKLITKANVQ [Nd2, k3r, p5a, e18a]”: the “koff” value was 0.013 ± 0.001 min⁻¹ and the “kon (M^−1 min^−1 ) (×10^7)” value is given as 3.4 ± 0.1 ×10^7 M^−1 min^−1.
The matching figures for KIPNFIPAELKLITKANVQ [Nd2, e18a]: 0.0083 ± 0.0010 min⁻¹ and 6.5 ± 0.7 ×10^7 M^−1 min^−1.
On to FIPAELKLITKA [Nd6, Cd3, e18a], for which the off-rate (koff) is >2 min⁻¹.
Take GEKIPNFIAAELKLITKENVQ [p9a]: the dissociation rate constant (koff) was 0.0024 ± 0.0004 min⁻¹ and the “kon (M^−1 min^−1 ) (×10^7)” value was 1.4 ± 0.2 ×10^7 M^−1 min^−1.
On to ELKLITKE [Nd10, Cd3], for which the “koff” value was >2 min⁻¹.

(Values after US11414454B2, “Compositions, methods, and systems for affinity-based protein identification and purification” (Auctus Biologies, Inc., priority 2017, dated 2022).)
